Reference: ChEMBL document CHEMBL3124920, “Substituted Benzofurans as Inhibitors of HCV NS5B Protein” (ACS Med Chem Lett, 2014)

Assays:
Hepatitis C virus = assay: Antiviral activity against Hepatitis C virus genotype 1b infected in human HuH7 cells after 3 days by luciferase reporter gene assay; format: functional, organism-based, Hepacivirus hominis; conditions: Huh-7, 72 h
[1] = Inhibition of HCV NS5B polymerase after 4 hrs by on-bead solid phase homogeneous assay; design: species or system Hepacivirus hominis

Row | EC50 (Hepatitis C virus) [µM] | IC50 [1] [µM] | Compound
1 | 0.009 | – | CCN(c1cc2oc(-c3ccc(F)cc3)c(-c3ncc[nH]3)c2c(F)c1-c1cc(C(=O)NC2(c3ncccn3)CC2)c(OC)cc1C)S(C)(=O)=O
2 | 0.0072 | – | CCNc1cc2oc(-c3ccc(F)cc3)c(-c3ncc[nH]3)c2c(F)c1-c1cc(C(=O)NC2(c3ncccn3)CC2)c(OC)cc1C
3 | 0.03 | 0.03 | COc1cc(C)c(-c2ccc3oc(-c4ccc(F)cc4)c(-c4ncc[nH]4)c3c2F)cc1C(=O)NC1(c2ncccn2)CC1
